# Data as given in paper PMC12286057, “An Investigation of 5-Halogenated N-Indolylsulfonyl-2-fluorophenol Derivatives as Aldose Reductase Inhibitors” (Medicines, 2025).
# Legend:
# [1] = target: T1, partially purified ALR2 from rat lenses (Rattus norvegicus, UniProt P07943); experiment: ALR2 enzymatic assay (NADPH consumption, DL-glyceraldehyde substrate); type: biochemical; conditions: for fold activity loss compared to lead compound IIc: IC50 ratio versus IIc, rat ALR2 enzyme; for fold less strong ARI than sorbinil and epalrestat: IC50 ratio versus the reference drugs sorbinil and epalrestat; for inhibition at 10 µM: cut-off concentration of 10 μM; for IC50: partially purified ALR2 from rat lenses, 0.1–10 μM concentrations
# T1 construct: Supernatant containing the partially purified ALR2 enzyme was used directly or stored at −80 °C for less than 24 h; from tissue; host or cells: eye lenses of Fischer-344 rats (homogenate supernatant after 40% ammonium sulfate precipitation)
# Method: The ALR2 enzyme was isolated from rat lenses of the Fischer-344 series. Laboratory animal handling and experiment conduct was carried out in accordance with the Law on the Protection of Laboratory Animals (Hellenic Republic) and was declared to the Veterinary Authority of the Republic of Greece. The animal study protocol was approved by the Ethics Committee of the Prefecture of Central Macedonia (protocol code 270079/2500) for studies involving animals.
# Eye lenses were quickly removed from Fischer-344 rats following euthanasia. The enzyme was partially purified by a well-established and previously reported procedure. The lenses were removed from euthanized rats and were quickly stored at −80 °C until used. Great care was taken to clean the lenses mechanically from other ocular tissues and debris. The lenses were homogenized in 5 vol of cold ultrapure water (0.5 mL per lens), and the homogenate was centrifuged at 10,000 × rpm at 0–4 °C for 15 min. The supernatant was then collected, precipitated with a saturated solution of ammonium sulfate (40% saturation), and centrifuged at 10,000 × rpm at 0–4 °C for 15 min. Supernatant containing the partially purified ALR2 enzyme was used directly or stored at −80 °C for less than 24 h.
# ALR2 activity was assayed spectrophotometrically by determining NADPH consumption (ε340nm = 6300 M^−1 × cm^−1). The examined compounds were dissolved in DMSO (1% final concentration) at appropriate final concentrations (0.1–10 μM). The effects of the compounds on enzyme activity were determined by including the inhibitor in the reaction mixture at required concentrations. At the same concentration, the inhibitor was included in the reference blank. The reference blank contained all the following reagents except the substrate to correct NADPH oxidation, which is not associated with the substrate’s reduction. Briefly, 2.4 mL of 66.7 mM phosphate Na^+/K^+ assay buffer (pH = 6.2), 100 μL of 3.2 mM NADPH solution in assay buffer, 300 μL of enzyme supernatant, 90 μL of ultrapure water, and 10 μL of solution of tested inhibitors in DMSO in appropriate concentration or pure DMSO (served as control) were mixed in that order in a glass vial. Subsequently, 1 mL of that mixture was transferred to each 1.5 mL-UV quartz cuvette (10 mm path length), and 100 μL of assay buffer (reference blank) or 110 mM DL-glyceraldehyde solution (10 mM final concentration) in assay buffer was added to initiate the enzyme reaction. ALR2 activity was assayed by monitoring NADPH consumption (0.1 mM final concentration) at 340 nm for 5 min after incubating reaction mixtures for 1 min at 30 °C. […] IC50 values were determined by least-squares regression analysis of the semi-logarithmic dose–inhibition curves. Each curve was generated using at least five compounds’ concentrations, causing inhibition from at least 15–80% in at least three triplicate repetitions.
# ALR2 = tested on: ALR2; design: method as in Mylari et al. [49]; conditions: preclinical studies; ref Mylari et al. [49]; cited from earlier work
# [2] = design: method as in Mylari et al. [49]; conditions: ref Mylari et al. [49], cited from earlier work
# diabetic rats = tested on: diabetic rats; design: method as in Mylari et al. [49]; conditions: lens, retina and sciatic nerve of diabetic rats; ref Mylari et al. [49]; cited from earlier work
# Caco-2 = tested on: Caco-2; design: method as in Mylari et al. [49]; conditions: ref Mylari et al. [49]; cited from earlier work
fold activity loss compared to lead compound IIc [1],fold less strong ARI than sorbinil and epalrestat [1],inhibition at 10 µM [1],IC50 [1],ALR2 inhibitory activity at 1 μM ([1]; lower dose of 1 μM),Structure (SMILES),IC50 (ALR2),oral bioavailability ([2]; at 2 mg/kg),plasma half-life ([2]; preclinical studies),in vivo normalization of elevated sorbitol and fructose (diabetic rats),Caco-2 transcellular permeability (Caco-2)
1.9 fold,7.4 fold,80.6 ± 2%,1850 ± 150 nM,–,"O=S(=O)(c1ccc(O)c(F)c1)n1ccc2cc(Br)ccc21 [Compound 3c, 4-((5-bromo-1H-indol-1-yl)sulfonyl)-2-fluorophenol]",–,–,–,–,–
–,–,43.7 ± 1.3%,> 10000 nM,completely inactive,"Oc1ccc(-n2ccc3cc(Cl)ccc32)cc1F [Compound 3d, 4-(5-chloro-1H-indol-1-yl)-2-fluorophenol]",–,–,–,–,–
2.3 fold,9 fold,77.6 ± 1.3%,2220 ± 280 nM,–,"O=S(=O)(c1ccc(O)c(F)c1)n1ccc2cc(Cl)ccc21 [Compound 3b, 4-((5-chloro-1H-indol-1-yl)sulfonyl)-2-fluorophenol]",–,–,–,–,–
–,–,–,–,–,"Cc1c(S(=O)(=O)c2ccc(=O)[nH]n2)oc2ccc(Cl)cc12 [CP-744809, 6-(5-chloro-3-methylbenzofuran-2-sulfonyl)-2H-pyridazin-3-one]",0.84 nM,98%,23 to 29 h,remarkable efficiency in vivo in normalizing elevated sorbitol and fructose,> 10^−5 cm/s
3.1 fold,12 fold,74.5 ± 2.6%,3020 ± 450 nM,–,"O=S(=O)(c1ccc(O)c(F)c1)n1ccc2cc(F)ccc21 [Compound 3a, 4-((5-fluoro-1H-indol-1-yl)sulfonyl)-2-fluorophenol]",–,–,–,–,–
